Experimental data: patent US9066948B2, “Oxadiazolo[3,2-a]pyrimidines and thiadiazolo[3,2-a]pyrimidines” (THE UNITED STATES OF AMERICA AS REPRESENTED BY THE …, priority 2010, dated 2015)

What was measured:
platelets = assay: Platelet adhesion assay: calcein-labeled platelets on fibrinogen-coated wells; type: cell-based; conditions: Homo sapiens, mean±SD
Description: Thirty microliters of human fibrinogen (50 μg/mL) in Tris/saline (100 mM NaCl, 50 mM Tris/HCl, pH 7.4; American Diagnostica, Stamford, Conn.) are added to black, clear-bottom, untreated polystyrene, nonsterile 384-well microtiter plate wells (Corning no. 3711; Acton, Mass.). […] An additional wash is performed using HBMT with 1 mM MgCl2 and 2 mM CaCl2. Calcein-labeled platelets (final concentration 1×10^11/L) are treated with selected Compounds of the Invention (final concentration of 100 μM, 30 μM, 10 μM or 1 μM) at 22° C. for 20 minutes. Thirty microliters of platelets are then added to the wells. After 1 hour of adhesion, wells are washed 3 times with HBMT-1 mM MgCl2/2 mM CaCl2 and the plates are read by a fluorescent microtiter plate reader (Envision; Perkin Elmer) to detect calcein fluorescence (490 nm excitation and 515 nm emission). Negative controls consist of wells containing platelets without compounds of the invention.

rat platelets = assay: ADP-induced platelet aggregation, rat PRP (Example 45); type: cell-based; conditions: 1 μM
Description: Blood may be drawn via cardiac puncture from anesthetized Sprague Dawley rats (Taconic, Hudson, N.Y.), WT C57B1/6 mice (Jackson Laboratories, Bar Harbor, Me.), and mice expressing hαIIb/mβ3 and diluted 1:1 with a mixture of 4 parts 0.165 […], pH 7.4 containing 2 mM CaCl2 and 1 mM MgCl2. Blood from consenting human volunteers is obtained from a peripheral vein using a 19 gauge needle and anticoagulated with 1:10 vol 3.8% sodium citrate. Platelet-rich plasma (PRP) may be isolated by centrifugation at 22° C. at 350 g for 10 minutes (rats); 250 g for 2.5 minutes (mice); or 650 g for 4 minutes (human). Mouse PRP samples may be adjusted to 400,000 platelets/μl with the buffer used for dilution and human PRP may be adjusted to 300,000 platelets/μl with platelet-poor plasma. […] Platelet aggregation may be induced by adding to PRP adenosine diphosphate (ADP) at 30 μM (rats and WT mice), 20 or 30 μM (hαIIb/mβ3 mice), or 5 μM (humans), and light transmission may be measured over time in an aggregometer (Kowa AG-10E, Tokyo, Japan) with stirring. Percent inhibition may be calculated by comparing the initial slope of untreated samples to the samples treated with the Compounds of the Invention.

washed platelets [1] = assay: Platelet adhesion/aggregation to collagen; type: cell-based, human
Description: (§1) Washed platelets are prepared as per the primary screening assay, suspended in HBMT containing 1 mM MgCl2 (platelet adhesion to collagen) or 2 mM CaCl2/1 mM MgCl2 (platelet adhesion to fibrinogen) and adjusted to a count of 250×10^9/L. HEK293 cells stably expressing normal human αVβ3 or normal human αIIbβ3 are suspended in HBMT containing either 1 mM MgCl2 (HEK293 cells expressing αVβ3 for adhesion to vitronectin) or 2 mM CaCl2/1 mM MgCl2 (HEK293 cells expressing αIIbβ3 for adhesion to fibrinogen); the cell counts are adjusted to 10^6/mL. Polystyrene 96-well microtiter plates (Nunc) are coated with either fibrinogen (50 μg/mL), vitronectin (5 μg/mL), or collagen (33 μg/mL, rat tail type 1; Becton Dickinson) for 1 hour, and blocked with HBMT for at least 1 hour. Platelets and cells are treated with the compound of Example 27 of the current invention or 2-ethyl-7-(piperazin-1-yl)-5H-[1,3,4]thiadiazolo-[3,2-a]pyrimidin-5-one of U.S. Ser. No. 12/514,286 in the presence or absence of anti-α2β1 mAb 6F1, anti-αIIbβ3 mAb 10E5, anti-αIIbβ3 mAb 10E5+αVβ3 mAb 7E3, αVβ3-specific mAb LM609, or anti-αVβ3+αIIbβ3 mAb 7E3, for 15 minutes at 37° C. before being added to the microtiter wells. After adhering for 1 hour at either 22° C. (platelets) or 37° C. (cells), nonadherent platelets or cells are removed by washing 3 times with HBMT containing the same ion composition as the buffer used for adhesion. […] In other experiments, 8-chambered glass coverslips (Nunc) are coated with collagen (33 μg/mL) for 1 hour at 22° C. Washed platelets are allowed to adhere for 1 hour at 22° C. and the coverslips are stained with the Alexa-488-conjugated β3-specific mAb 7H2. Adherent platelets are imaged using a Zeiss LSM-510 confocal system with Axiovert 200 microscope (Carl Zeiss, Heidelberg, Germany) using a Plan-Apochromat 100/1.4 NA oil DIC objective.

[2] = target: T1, HEK293 cells stably expressing normal human αVβ3 (Homo sapiens, UniProt P05106+P06756); assay: αVβ3-mediated cell adhesion to vitronectin; type: cell-based
T1 construct: expressed in transfected cells; host or cells: HEK293
Description: as §1

[3] = target: T2, HEK293 cells stably expressing normal human αIIbβ3 (Homo sapiens, UniProt P05106+P08514); assay: αIIbβ3-mediated cell adhesion to fibrinogen; type: cell-based; conditions: same concentration as αVβ3 experiments (10 μM), n=4
T2 construct: expressed in transfected cells; host or cells: HEK293
Description: Washed platelets are prepared as per the primary screening assay, suspended in HBMT containing 1 mM MgCl2 (platelet adhesion to collagen) or 2 mM CaCl2/1 mM MgCl2 (platelet adhesion to fibrinogen) and adjusted to a count of 250×10^9/L. HEK293 cells stably expressing normal human αVβ3 or normal human αIIbβ3 are suspended in HBMT containing either 1 mM MgCl2 (HEK293 cells expressing αVβ3 for adhesion to vitronectin) or 2 mM CaCl2/1 mM MgCl2 (HEK293 cells expressing αIIbβ3 for adhesion to fibrinogen); the cell counts are adjusted to 10^6/mL. Polystyrene 96-well microtiter plates (Nunc) are coated with either fibrinogen (50 μg/mL), vitronectin (5 μg/mL), or collagen (33 μg/mL, rat tail type 1; Becton Dickinson) for 1 hour, and blocked with HBMT for at least 1 hour. Platelets and cells are treated with the compound of Example 27 of the current invention or 2-ethyl-7-(piperazin-1-yl)-5H-[1,3,4]thiadiazolo-[3,2-a]pyrimidin-5-one of U.S. Ser. No. 12/514,286 in the presence or absence of anti-α2β1 mAb 6F1, anti-αIIbβ3 mAb 10E5, anti-αIIbβ3 mAb 10E5+αVβ3 mAb 7E3, αVβ3-specific mAb LM609, or anti-αVβ3+αIIbβ3 mAb 7E3, for 15 minutes at 37° C. before being added to the microtiter wells. After adhering for 1 hour at either 22° C. (platelets) or 37° C. […]

washed platelets [4] = assay: Effect of Mg2+ concentration on platelet adhesion to fibrinogen; type: cell-based, human; conditions: for IC50: Homo sapiens, Platelet, mean±SD, three experiments
Description: Washed platelets in buffers containing 1 mM Ca^2+ plus 1 mM, 20 mM, or 50 mM Mg^2+ are added to wells pre-coated with fibrinogen (50 μg/ml) for 60 min at 22° C. After washing, adherent platelets are detected by acid phosphatase activity. Results are expressed as mean±SD (n=3 for the compound of Example 27 of the current invention and 2-ethyl-7-(piperazin-1-yl)-5H-[1,3,4]thiadiazolo-[3,2-a]pyrimidin-5-one (a compound disclosed and claimed in U.S. Ser. No. 12/514,286); n=2 for tirofiban).

washed platelets [5] = assay: Effect of Mg2+ on washed platelet aggregation induced by thrombin receptor activating peptide (SFLLRN); type: cell-based, human; conditions: compound at 1 μM; SFLLRN 10 μM
Description: Washed platelets are resuspended in buffer containing fibrinogen (200 μg/ml) and 1 mM […] in combination with either 1 mM or 20 mM Mg^2+. Aggregation is induced by adding a thrombin receptor activating peptide (SFLLRN) at 10 μM.

T1 sequence (P06756 31-889 limits assumed): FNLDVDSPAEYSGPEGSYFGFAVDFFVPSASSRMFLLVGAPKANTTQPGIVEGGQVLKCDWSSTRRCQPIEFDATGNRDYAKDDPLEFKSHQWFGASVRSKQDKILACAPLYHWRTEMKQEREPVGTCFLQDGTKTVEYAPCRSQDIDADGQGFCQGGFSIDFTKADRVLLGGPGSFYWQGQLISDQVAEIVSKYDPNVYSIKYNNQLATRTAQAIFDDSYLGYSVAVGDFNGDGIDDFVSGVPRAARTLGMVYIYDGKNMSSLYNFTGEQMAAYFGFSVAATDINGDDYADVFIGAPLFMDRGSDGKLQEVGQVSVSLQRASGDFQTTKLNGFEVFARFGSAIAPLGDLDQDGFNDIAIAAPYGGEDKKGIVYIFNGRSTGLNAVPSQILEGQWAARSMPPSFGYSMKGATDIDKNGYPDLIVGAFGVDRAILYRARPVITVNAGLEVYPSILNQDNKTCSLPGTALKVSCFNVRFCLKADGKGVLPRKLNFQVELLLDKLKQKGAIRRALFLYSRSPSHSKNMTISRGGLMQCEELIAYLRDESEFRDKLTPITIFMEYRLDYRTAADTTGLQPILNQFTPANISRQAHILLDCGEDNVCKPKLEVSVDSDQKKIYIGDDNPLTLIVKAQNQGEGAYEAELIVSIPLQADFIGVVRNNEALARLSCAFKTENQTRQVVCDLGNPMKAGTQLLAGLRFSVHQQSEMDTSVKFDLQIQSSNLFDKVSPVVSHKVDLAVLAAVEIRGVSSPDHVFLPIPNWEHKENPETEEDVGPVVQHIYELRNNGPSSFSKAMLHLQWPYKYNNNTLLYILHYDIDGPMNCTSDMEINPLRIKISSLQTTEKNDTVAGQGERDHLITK
T1 sequence (P06756 891-1048 partner limits assumed): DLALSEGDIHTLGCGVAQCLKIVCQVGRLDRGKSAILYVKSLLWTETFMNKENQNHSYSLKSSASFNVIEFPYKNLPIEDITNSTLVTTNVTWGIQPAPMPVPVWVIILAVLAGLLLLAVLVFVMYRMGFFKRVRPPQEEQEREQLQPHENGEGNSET
T1 sequence (P05106 27-788): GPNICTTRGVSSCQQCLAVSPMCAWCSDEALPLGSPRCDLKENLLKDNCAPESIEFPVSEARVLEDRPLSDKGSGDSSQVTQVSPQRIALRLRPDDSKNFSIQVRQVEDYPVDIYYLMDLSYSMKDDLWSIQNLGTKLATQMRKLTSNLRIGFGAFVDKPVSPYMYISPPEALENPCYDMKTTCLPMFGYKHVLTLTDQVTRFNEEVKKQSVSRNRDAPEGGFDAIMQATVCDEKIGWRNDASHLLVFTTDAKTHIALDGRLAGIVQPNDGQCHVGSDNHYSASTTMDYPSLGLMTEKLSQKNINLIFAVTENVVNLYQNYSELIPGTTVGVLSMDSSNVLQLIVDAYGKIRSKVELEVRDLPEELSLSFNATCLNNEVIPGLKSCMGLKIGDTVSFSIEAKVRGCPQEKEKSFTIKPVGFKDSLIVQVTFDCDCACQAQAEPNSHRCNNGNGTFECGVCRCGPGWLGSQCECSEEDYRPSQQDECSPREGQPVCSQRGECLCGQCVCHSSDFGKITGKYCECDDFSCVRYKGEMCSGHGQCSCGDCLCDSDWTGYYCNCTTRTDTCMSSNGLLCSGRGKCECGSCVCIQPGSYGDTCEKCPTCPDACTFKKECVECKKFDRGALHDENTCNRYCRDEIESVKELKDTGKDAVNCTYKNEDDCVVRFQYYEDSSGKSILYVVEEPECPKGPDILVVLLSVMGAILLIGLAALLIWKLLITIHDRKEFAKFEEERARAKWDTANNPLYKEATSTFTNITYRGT
T2 sequence (P08514 32-887 limits assumed): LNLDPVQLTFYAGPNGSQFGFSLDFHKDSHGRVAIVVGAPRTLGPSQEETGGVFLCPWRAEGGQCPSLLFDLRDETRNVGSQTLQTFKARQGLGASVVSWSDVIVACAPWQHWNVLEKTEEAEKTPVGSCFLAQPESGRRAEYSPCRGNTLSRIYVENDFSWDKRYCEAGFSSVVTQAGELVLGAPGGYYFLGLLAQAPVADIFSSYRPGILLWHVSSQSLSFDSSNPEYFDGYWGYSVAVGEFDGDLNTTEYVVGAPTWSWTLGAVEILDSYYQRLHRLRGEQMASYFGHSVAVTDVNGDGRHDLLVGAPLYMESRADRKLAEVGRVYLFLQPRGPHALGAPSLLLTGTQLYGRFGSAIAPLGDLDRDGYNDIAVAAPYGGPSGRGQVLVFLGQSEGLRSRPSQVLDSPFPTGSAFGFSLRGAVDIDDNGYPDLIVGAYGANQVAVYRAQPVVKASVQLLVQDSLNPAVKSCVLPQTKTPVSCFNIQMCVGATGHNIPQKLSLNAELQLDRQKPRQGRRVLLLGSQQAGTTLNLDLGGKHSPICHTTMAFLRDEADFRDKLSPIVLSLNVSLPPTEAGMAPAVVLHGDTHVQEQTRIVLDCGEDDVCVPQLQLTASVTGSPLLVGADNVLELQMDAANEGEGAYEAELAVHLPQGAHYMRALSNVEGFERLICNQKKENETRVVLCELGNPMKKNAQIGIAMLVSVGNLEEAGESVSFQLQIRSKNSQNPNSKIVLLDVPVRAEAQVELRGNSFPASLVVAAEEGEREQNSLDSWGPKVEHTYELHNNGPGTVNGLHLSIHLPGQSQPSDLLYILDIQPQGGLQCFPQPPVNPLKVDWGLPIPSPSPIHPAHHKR
T2 sequence (P08514 891-1039 partner limits assumed): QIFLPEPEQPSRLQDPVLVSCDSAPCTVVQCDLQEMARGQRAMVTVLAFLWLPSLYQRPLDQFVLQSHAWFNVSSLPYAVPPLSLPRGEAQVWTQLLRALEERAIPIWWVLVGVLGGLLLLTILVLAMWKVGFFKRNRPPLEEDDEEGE
T2 sequence (P05106 27-788): as the sequence (P05106 27-788) above

SMILES: NCC(=O)Nc1cccc(-c2nn3c(=O)cc(N4CCNCC4)nc3s2)c1 [Example 27, 2-amino-N-(3-(5-oxo-7-(piperazin-1-yl)-5H-[1,3,4]thiadiazolo[3,2-a]pyrimidin-2-yl)phenyl)acetamide]
- inhibition at 10 µM (platelets; 10 μM): 66 ± 10%
- inhibition at 30 µM (platelets; 30 μM, 5 separate experiments): 80 ± 13%
- inhibition at 100 µM (platelets; 100 μM, 5 separate experiments): 83 ± 7%
- inhibition of rat platelet aggregation induced by ADP (rat platelets): does not inhibit either mouse or rat platelet aggregation
- inhibition of platelet adhesion/aggregation to collagen (washed platelets [1]; 1-100 μM): ~30%
- further inhibition of adhesion/aggregation to collagen when combined with anti-αIIbβ3 antibody 10E5 (washed platelets [1]; combination with mAb 10E5): does not further inhibit adhesion/aggregation
- platelet adhesion to collagen, microscopic analysis (washed platelets [1]; confocal microscopy of adherent platelets): does not decrease platelet adhesion to collagen
- selectivity for αIIbβ3 compared to αVβ3 [2]: selective for αIIbβ3 compared to αVβ3
- inhibition at 10 µM [3]: 65 ± 5%
- decrease in affinity going from 1 to 50 mM Mg2+ (washed platelets [4]; 1 to 50 mM Mg2+): ~80%
- increase in IC50 going from 1 to 50 mM Mg2+ (washed platelets [4]; 1 to 50 mM Mg2+): ~4.5 fold
- IC50 (washed platelets [4]; 1 mM Mg2+): 0.29 ± 0.1 µM
- IC50 (washed platelets [4]; 20 mM Mg2+): 0.91 ± 0.21 µM
- IC50 (washed platelets [4]; 50 mM Mg2+): 1.3 ± 0.35 µM
- effect of Mg2+ on the inhibition of SFLLRN-induced platelet aggregation (washed platelets [5]): clearly attenuated at 20 mM Mg^2+
